Data taken from patent publication US20230312571A1, “RING-MODIFIED PROLINE SHORT PEPTIDE COMPOUND AND USE THEREOF” (priority 2021, published 2023).
Read-outs that look alike come from different tables or passages of the source.

Experiments:
coronavirus HCoV OC43 = experiment: In vitro anti-coronavirus activity by cytopathic model (CPE, CellTiter Glo); type: cell-based; conditions: HCoV OC43 100 TCID50/well, MRC5 cells, 5 days
Procedure: MRC5 cells and coronavirus HCoV OC43 were purchased from ATCC.
MRC5 cells were cultured in MEM (Sigma) medium supplemented with 10% fetal bovine serum (Excell), 1% double antibody (Hyclone), 1%L-glutamine (Gibco) and 1% non-essential amino acids (Gibco). MEM (Sigma) medium supplemented with 5% fetal bovine serum (Excell), 1% double antibody (Hyclone), 1% L-glutamine (Gibco) and 1% non-essential amino acid (Gibco) was used as the experimental culture medium.
Cells were inoculated into a 96 microwell plate at a certain density (Table 6) and cultured overnight in an incubator at 5% CO2 and 37° C. On the second day, the compound was added after doubling dilution (8 concentration points, duplicate wells), with 50 µL per well. Then the diluted virus was added to the cells at 100 TCID50 per well, 50 µL per well. Cell control (cell without compound treatment or virus infection), virus control (cell infected with virus without compound treatment) and culture medium control (only culture medium) were set. The final volume of the culture medium in this experiment was 200 µL, and the final concentration of DMSO in the culture medium was 0.5%. Cells were cultured in a 5% CO2, 33° C. incubator for 5 days. Cell viability was detected using the cell viability assay kit CellTiter Glo (Promega). Cytotoxicity experiments were performed under the same conditions as antiviral experiments, but without virus infection.
The antiviral activity and cytotoxicity of the compound were represented by the inhibition rate (%) and cell viability (%) of the compound on the cytopathic effect caused by the virus at different concentrations, respectively. The calculation formula is as follows: […]
GraphPad Prism was used to perform nonlinear fitting analysis on the inhibition rate and cell viability of the compound, and the half effective concentration (EC50) and half cytotoxic concentration (CC50) of the compound were calculated.

SARS-CoV-2 Mpro = SARS-CoV-2 Mpro (Severe acute respiratory syndrome coronavirus 2 (2019-nCoV) (SARS-CoV-2), UniProt P0DTD1); experiment: In vitro anti-novel coronavirus Mpro protease activity (fluorescent substrate cleavage); type: biochemical
Procedure: The compound was dissolved in DMSO, and diluted in a 3-fold gradient with Echo655 according to the concentration requirements to 10 concentration points, and duplicate tests were set at each concentration, and the diluted solution was added to a 384-well plate. Mpro protein and substrate were diluted with test buffer (100 mM NaCl, 20 mM Tris-HCl, 1 mM EDTA), and Mpro protein was added to the 384-well test plate, incubated with the compound for 30 min at room temperature, and then the substrate was added thereto, and the test concentration of Mpro protein was 25 nM, and the test concentration of substrate was 25 µM. After incubating for 60 minutes in a 30° C. constant temperature incubator, the fluorescence signal value of Ex/Em=340 nm/490 nm was detected by microplate reader. At the same time, the background well containing the substrate and compound but not containing Mpro protein was detected as control.

[1] = system: SARS-CoV-2 virus (Novel coronavirus βCoV/KOR/KCDC03/2020 strain); experiment: Anti-novel coronavirus activity in Vero cells (immunofluorescence, high-content imaging); type: cell-based; conditions: Severe acute respiratory syndrome coronavirus 2, wild-type novel coronavirus, MOI=0.0125, 24 hours
in vitro = conditions: African green monkey
[2] = Cytotoxicity in the cytopathic model, without virus infection (CellTiter Glo); conditions: human
[3] = set-up: species or system C57BL/6J male mice; conditions: mouse, in vivo, po, 10 mg/kg
Procedure: In this study, C57BL/6J male mice were selected as test animals, and the LC/MS/MS method was used to quantitatively measure the plasma concentrations of mice in combination with Ritonavir at different time points, so as to evaluate the pharmacokinetic characteristics of the test drug in mice.
Firstly, 10 mpk of Ritonavir was administered to mice by intragastric administration at -12 h and 0 h, and then the test compound was dissolved in 30% PEG400+70% normal saline solution and administered to mice by intragastric administration (overnight fasting, 6 to 8 weeks old). 25 µL of blood was collected at 0.083, 0.25, 0.5, 1, 2, 4, 8, 12 and 24 hours after administration to animals, placed in a commercial anticoagulant tube pre-added with EDTA-K2, and centrifuged at 4° C., 3200 g for 10 min to obtain plasma. After the plasma samples were treated, the plasma concentration was determined by LC-MS/MS method.

[4] = Tissue distribution test in rats (plasma and lung, with Ritonavir); type: in vivo, SD male rats; conditions: 30 mpk p.o. with Ritonavir 10 mpk
Procedure: In this study, SD male rats were selected as test animals, and the drug concentrations of test compounds in plasma and lungs of rats at different time points were quantitatively measured by LC/MS/MS method to evaluate the pharmacokinetic characteristics of test drugs in rats.
Firstly, 10 mpk of Ritonavir was administered to rats by intragastric administration at -12 h and 0 h, and 30 mpk of the test compound was dissolved in 10% Solutol + 30% PEG 400 + 2% Tween 80+H2O 58% solution and administered to rats by intragastric administration (overnight fasting). 40 µL of blood was collected from the saphenous vein of rats at 0.25, 1 and 6 hours after administration, placed in an anticoagulant tube added with EDTA-K2, centrifuged at 4° C., 3200 g for 10 min to obtain plasma, and some animals were killed at 0.25, 1 and 6 hours respectively to collect lung tissue. After the plasma samples were treated, the plasma concentration was determined by LC-MS/MS method.

[5] = set-up: species or system C57BL/6J male mice; conditions: mouse, in vivo
Procedure: In this study, C57BL/6J male mice were selected as test animals, and LC/MS/MS method was used to quantitatively measure the plasma concentration of the test compound 11 at different time points after oral administration and injection in mice, so as to evaluate the pharmacokinetic characteristics of the test drug in mice.
The test compound dissolved in 30% PEG400+70% normal saline was administered to mice (overnight fasting, 6-8 weeks old) by intragastric administration. 25 µL of blood was collected at 0.083, 0.25, 0.5, 1, 2, 4, 8, 12 and 24 hours after administration, respectively, and placed in commercial anticoagulation tubes pre-added with EDTA-K2, centrifuged at 4° C., 3200 g for 10 min to obtain plasma, and after the plasma sample was treated, the plasma concentration was determined by LC-MS/MS method.

Vero cells = conditions: 24 hours
[6] = 25 nM Mpro protein, 25 µM substrate, read-out: IC50

SMILES: N#C[C@H](C[C@@H]1CCNC1=O)NC(=O)[C@@H]1[C@H]2CC[C@H](C2)N1C(=O)[C@@H](NC(=O)C(F)(F)F)C12CC3CC(CC(C3)C1)C2 [Compound 3]
- EC50 (coronavirus HCoV OC43; Betacoronavirus 1, 120 h): 62 nM
- IC50 (SARS-CoV-2 Mpro): 21 nM
- EC50 [1]: 35 nM
- CC50 (in vitro): > 5000 nM
- CC50 at 5 days [2]: > 10000 nM

SMILES: N#C[C@H](C[C@@H]1CCNC1=O)NC(=O)[C@@H]1[C@H]2CC[C@H](C2)N1C(=O)[C@@H](NC(=O)C(F)(F)F)C12CCC(CC1)CC2 [Compound 4]
- EC50 (coronavirus HCoV OC43; Betacoronavirus 1, 120 h): 141 nM
- IC50 (SARS-CoV-2 Mpro): 53 nM
- EC50 [1]: 30 nM
- CC50 (in vitro): > 5000 nM
- CC50 at 5 days [2]: > 10000 nM

SMILES: CC1C[C@H]2C[C@@H]1N(C(=O)[C@@H](NC(=O)C(F)(F)F)C(C)(C)C)[C@@H]2C(=O)N[C@H](C#N)C[C@@H]1CCNC1=O (stereo partly shown) [Compound 5]
- EC50 (coronavirus HCoV OC43; Betacoronavirus 1, 120 h): 205 nM
- EC50 [1]: 20 nM
- CC50 (in vitro): > 5000 nM
- CC50 at 5 days [2]: > 10000 nM

SMILES: CC(C)(C)[C@H](NC(=O)C(F)(F)F)C(=O)N1[C@H]2C[C@@H]([C@H]1C(=O)N[C@H](C#N)C[C@@H]1CCNC1=O)C(F)(F)C2 [Compound 6]
- IC50 (SARS-CoV-2 Mpro): 135 nM

SMILES: CC1([C@H](NC(=O)C(F)(F)F)C(=O)N2[C@@H]3CC[C@@H](C3)[C@H]2C(=O)N[C@H](C#N)C[C@@H]2CCNC2=O)CCCCC1 [Compound 7]
- IC50 (SARS-CoV-2 Mpro): 62 nM

SMILES: CC(C)(C)[C@H](NC(=O)C(F)(F)F)C(=O)N1[C@H]2C[C@@H]([C@H]1C(=O)N[C@H](C#N)C[C@@H]1CCNC1=O)C(F)(F)C2 [Compound 10]
- IC50 (SARS-CoV-2 Mpro; [6]): 17 nM

SMILES: CC(C)(C)[C@H](NC(=O)C(F)(F)F)C(=O)N1[C@H]2C[C@@H]([C@H]1C(=O)N[C@H](C#N)C[C@@H]1CCNC1=O)C1(CC1)C2 [Compound 11]
- EC50 (coronavirus HCoV OC43): 3.5 nM
- IC50 (SARS-CoV-2 Mpro; [6]): 5.4 nM
- AUC0-last [3]: 28.683 µM·h
- Cmax [3]: 10.1 µM
- Tmax [3]: 30 min
- Ratio lung/plasma of AUC(0-6 h) [4]: 2.6/1
- Ratio lung/plasma ([4]; 0.25 h): 5.5/1
- Ratio lung/plasma ([4]; 1 h): 3.2/1
- Ratio lung/plasma ([4]; 6 h): 1.6/1
- CC50 (MRC5 cells): > 10000 nM
- AUC0-last ([5]; iv, 3 mg/kg): 1.447 µM·h
- CL ([5]; iv, 3 mg/kg): 68.5 mL/min/kg
- T½ ([5]; iv, 3 mg/kg): 12 min
- Vdss ([5]; iv, 3 mg/kg): 0.9 L/kg
- AUC0-last ([5]; po, 10 mg/kg): 1.519 µM·h
- Cmax ([5]; po, 10 mg/kg): 1.85 µM
- Tmax ([5]; po, 10 mg/kg): 15 min
- CC50 (Vero cells): > 5000 nM

SMILES: CC1C[C@@H]2C[C@H]1[C@@H](C(=O)N[C@H](C#N)C[C@@H]1CCNC1=O)N2C(=O)[C@@H](NC(=O)C(F)(F)F)C12CC3CC(CC(C3)C1)C2 (stereo partly shown) [Compound 12]
- IC50 (SARS-CoV-2 Mpro; [6]): 17 nM

SMILES: Cc1ccc(CC(=O)N[C@H](C(=O)N2[C@@H]3CC[C@@H](C3)[C@H]2C(=O)N[C@H](C#N)C[C@@H]2CCNC2=O)C23CC4CC(CC(C4)C2)C3)cc1 [Compound 13]
- IC50 (SARS-CoV-2 Mpro; [6]): 75 nM
